Measured values: patent publication US11406631B2, “Hydrazone derivatives for preventing or treating EBV-related cancers” (Universite de Bretagne Occidentale, priority 2018, dated 2022)

Columns and labels:
[1] = system: GAr-based inhibition of translation; assay: Yeast assay (assays described in Lista et al.); assay type: cell-based, Saccharomyces cerevisiae
Source text: A yeast-based (Saccharomyces cerevisiae) assay that recapitulates all the aspects of the GAr-based inhibition of translation, including the GAr-length dependency, has been developed, that allowed understanding the mechanisms of GAr-mediated mRNA translation—suppression in cis, as well as the cellular factors involved (Lista et al. Biotechnol J 2015, 10, 1670-1681). This assay was successfully used to identify small molecular weight compounds that can stimulate EBNA1 expression both in yeast and mammalian cells and that relieve GAr-based limitation of antigen presentation (Voisset et al. Dis Model Mech 2014, 7, 435-444).
Compounds 1a, 2a, 4a, 5a, 7a, 10a and 11a were also tested in the various assay described in Lista et al. (Nat Commun 2017, 8, 16043).

G4-RNA EBNA1 = assay: HT-G4-FID assay: Thiazole Orange displacement from G4-RNA; assay type: binding, Epstein-Barr virus; conditions: for DC50: K+-100 buffer, pH 7.3, triplicate assays; for affinity for the G-quadruplex structure of EBNA1 (in words, FID data): conclusion from Table 1
Description: This assay is based on the displacement of a fluorescent indicator (Thiazole Orange, hereinafter TO) from a G4-RNA structure (RNA G-quadruplex of EBNA1) by a putative ligand such as the compounds of the invention (see FIG. 1). This displacement is quantified as % TO displacement. The percentage of TO displacement is calculated from the fluorescence intensity (F) in the presence of a putative ligand, using:
[formula] where F0 is fluorescence intensity of the probe (TO) bound to RNA without added ligand. The percentage of displacement is then plotted as a function of the concentration of added ligand. The RNA affinity of putative ligands is evaluated using the concentration of a ligand required to decrease the fluorescence of the probe by 50% (noted DC50), which is determined graphically from non-linear fitting of the displacement curve. […] 2. Materials and Reagents
Thiazole Orange (TO) and cacodylic acid were purchased from Aldrich and used without further purification. The oligoribonucleotide EBNA1 [5′-r(GGGGCAGGAGCAGGAGGA)-3′] (SEQ ID no 1) purified by reversed-phase HPLC was purchased from Eurogentec.
Stock solutions of the ligands (2 mM in DMSO (dimethylsulfoxyde)) were used for G4-FID assay, unless otherwise stated, and were stored at −20° C. Stock solutions of TO (2 mM in DMSO) were used for G4-FID assay. Fluorescent probe powders and solutions were stored and used, protected from light and used as aliquots to avoid freeze-thaw cycles. HT-G4-FID measurements were performed on a FLUOstar Omega microplate reader (BMG Labtech) with 96-well Non-Binding Surface black with black bottom polystyrene microplates (Corning ref 3650).
For HT-G4-FID assay, the oligonucleotide was dissolved in K^+−100-buffer (10 mM lithium cacodylate, pH 7.3, 100 mM KCl, 1 mM EDTA, 1% DMSO). Oligonucleotide concentrations were determined on the basis of their absorbance at 260 nm. Prior to use, the oligonucleotide was pre-treated by heating at 95° C. for 5 min followed by a slow cooling to 25° C.
Each G4-FID assay is performed in a 96-well microplates. […] The microplate is filled with (a) K^+−100 solution (qs for 200 μL) (b) 10 μL of a solution of pre-folded oligonucleotides (5 μM) and TO (10 μM-2 eq) and (c) an extemporaneously prepared 5 μM ligand solution in K^+−100 buffer (0 to 100 μL along the line of the microplate, i.e., from column […]: 0, 0.125, 0.25, 0.375, 0.5, 0.625, 0.75, 1.0, 1.25, 1.5, 2.0 and 2.5 μM) (see Largy et al., Anal Bioanal Chem 2011, 400, 34193427). After 5 min of orbital shaking at 500 rpm, fluorescence intensity is measured using the following experimental parameters: positioning delay: 0.5 s, 20 flashes per well, emission/excitation filters (nm): 485/520, gain adjusted at 80% of the fluorescence from the most fluorescent well (i.e., a well from column A).
Results are shown in Table 1 below (lower DC50 values indicate higher affinity of compounds to the G4-RNA structure of EBNA1).

quadruplex RNA F-EBNA1-T = assay: FRET-melting assay; assay type: binding, Epstein-Barr virus; conditions: for ΔTm, ligand + 3 μM ds26 / ΔTm, ligand + 10 μM ds26 / ΔTm, ligand alone: F-EBNA1-T 0.2 μM, ligand 1.0 μM, K+10 buffer; for ΔTm, ligand + 3 μM ds26: competitor DNA ds26 3 μM (15 eq); for ΔTm, ligand + 10 μM ds26: competitor DNA ds26 10 μM (50 eq); for ΔTm, ligand alone: no competitor; for affinity for the G-quadruplex structure of EBNA1 (in words, FRET-melting data): conclusion from Table 2
Source text: The FRET-melting assay is based on thermal denaturation of G4-ARN monitored by fluorescence due to the phenomenon of Förster Resonance Energy Transfer (FRET). This method uses quadruplex-forming RNA sequence dual-labeled with two different fluorophores: a donor (fluorescein, or FAM) and an acceptor (tetramethylrhodamine, or TAMRA). When RNA is folded into G-quadruplex (G4) structure, fluorescence of the donor fluorophore is weak due to strong energy transfer (FRET) to the neighboring acceptor fluorophore. Upon thermal denaturation, the quadruplex unfolds and the fluorophores are separated, leading to decrease of the FRET effect and increase of the fluorescence of the donor (see FIG. 2). By following the fluorescence of the donor as a function of temperature, a melting curve of the G-quadruplex RNA can be obtained, which allows determining the temperature of denaturation at which 50% of the quadruples is unfolded (T1, FIG. 3).
The FRET-melting assay allows assessing the affinity of small molecules (ligands) for the G4-RNA. The addition of a G4-ligand stabilizes the G-quadruplex structure and increases the denaturation temperature. The temperature of denaturation in the presence of ligands (T2) can be compared with that obtained in the absence of ligands (T1). The value of ΔTm (ΔTm=T2−T1) represents a measure of the affinity of the compounds of the invention (ligand). Generally, values of ΔTm>20° C. correspond to ligands of high affinity.
The dual-labeled oligoribonucleotide EBNA1 [5′-FAM-r(GGGGCAGGAGCAGGAGGA)-TAMRA-3′] (SEQ ID no 2) purified by reversed-phase HPLC was purchased from Eurogentec. The donor fluorophore was 6-carboxyfluorescein (FAM) and the acceptor fluorophore was 6-carboxytetramethylrhodamine (TAMRA).
Stock solutions of the ligands (2 mM in DMSO) were used for FRET-melting assay, unless otherwise stated, and were stored at −20° C. FRET-melting measurements are performed on 7900HT Fast Real-Time PCR System (Applied Biosystems) with Microamp Fast optical 96-well reaction plate (Applied Biosystems).
Preparation of Oligonucleotides For FRET-melting assay, oligoribonucleotide F-EBNA1-T was dissolved in K^+10 buffer (10 mM lithium cacodylate buffer, pH 7.3, supplemented with 10 mM KCl and 90 mM LiCl).
Prior to use, all oligonucleotides were pre-treated by heating at 95° C. for 5 min, then rapidly cooled to 4° C. to favor the intramolecular folding by kinetic trapping. Duplex-DNA ds26 (5′CAA-TCG-GAT-CGA-ATT-CGA-TCC-GAT-TG-3′) (SEQ ID no 3) was prepared by heating this self-complementary strand at 90° C. for 5 min in K^+10 buffer followed by a slow cooling over 6 h.
FRET-melting assay is performed in 96-well plates on real time PCR apparatus 7900HT Fast Real-Time PCR System using the heating ramp as follow: 5 min at 25° C., then increase of 0.5° C. every minute until 95° C. Each experimental condition was tested in duplicated in a volume of 25 μL for each sample. The 96-well plates (Applied Biosystems) were prepared by aliquoting the annealed RNA (24 μL of 0.21 μM solution in K^+10 buffer) into each well, followed by 1 μL of ligand solution (25 μM in K^+10 buffer). For competition experiments, duplex competitors were added to 200 nM quadruplex sequences at final concentrations of 3.0 μM (15 eq) and 10.0 μM (50 eq), with a total reaction volume of 25 μL, with the labeled oligoribonucleotide (0.2 μM) and the ligand (1.0 μM). Measurements were made with excitation at 492 nm and detection at 516 nm. The change in the melting temperature in the presence of 1.0 μM putative ligand, ΔTm (1.0 μM), was calculated from at least two experiments by subtraction of the blank from the averaged melting temperature of each compound (1.0 μM).
The results are shown in FIG. 4 and in Table 2 below (higher ΔTm values indicate higher affinity of the compounds to G4-RNA structure of EBNA1).

Row | Structure (SMILES) | result in the yeast assay [1] | DC50 (G4-RNA EBNA1) | affinity for the G-quadruplex structure of EBNA1 (in words, FID data) (G4-RNA EBNA1) | ΔTm, ligand + 3 μM ds26 (quadruplex RNA F-EBNA1-T) | ΔTm, ligand + 10 μM ds26 (quadruplex RNA F-EBNA1-T) | ΔTm, ligand alone (quadruplex RNA F-EBNA1-T) | affinity for the G-quadruplex structure of EBNA1 (in words, FRET-melting data) (quadruplex RNA F-EBNA1-T)
1 | C[n+]1ccc(C=NNC(=O)c2cccc(C(=O)NN=Cc3cc[n+](C)cc3)n2)cc1.[I-].[I-] [Compound 1a, N′^2,N′^6-Bis[(1-methylpyridinium-4-yl)methylene]pyridine-2,6-dicarbohydrazide iodide] | positive results | – | – | – | – | – | –
2 | O=C(NN=Cc1cc[n+](Cc2ccccc2)c2ccccc12)c1cccc(C(=O)NN=Cc2cc[n+](Cc3ccccc3)c3ccccc23)n1.[Br-].[Br-] [Compound 2c, N′^2,N′^6-Bis[(1-benzylquinolinium-4-yl)methylene]pyridine-2,6-dicarbohydrazide bromide] | – | 390 ± 20 nM | particularly high affinity | 11.4 ± 0.6 °C | 9.6 ± 0.2 °C | 10.1 ± 0.9 °C | –
3 | CC[n+]1cccc2cc(C=NNC(=O)c3cccc(C(=O)NN=Cc4ccc5c(ccc[n+]5CC)c4)n3)ccc21.[I-].[I-] [Compound 3b, N′^2,N′^6-Bis[(1-ethylquinolinium-6-yl)methylene]pyridine-2,6-dicarbohydrazide iodide] | – | 740 ± 30 nM | – | 7.6 ± 0.5 °C | 7.4 ± 0.3 °C | 5.9 ± 0.1 °C | –
4 | O=C(NN=Cc1ccc2c(ccc[n+]2Cc2ccccc2)c1)c1cccc(C(=O)NN=Cc2ccc3c(ccc[n+]3Cc3ccccc3)c2)n1.[Br-].[Br-] [Compound 3c, N′^2,N′^6-Bis[(1-benzylquinolinium-6-yl)methylene]pyridine-2,6-dicarbohydrazide bromide] | – | 720 ± 30 nM | – | 12.2 ± 0.2 °C | 12.0 ± 0.2 °C | 10.4 ± 0.3 °C | –
5 | CC[n+]1cccc2cc(C=NNC(=O)c3ccc4ccc(C(=O)NN=Cc5ccc6c(ccc[n+]6CC)c5)nc4n3)ccc21.[I-].[I-] [Compound 9b, N′^2,N′^7-Bis[(1-ethylquinolinium-6-yl)methylene]-1,8-naphthyridine-2,7-dicarbohydrazide iodide] | – | 800 ± 10 nM | – | 10.3 ± 0.2 °C | 8.8 ± 0.2 °C | 11.8 ± 0.1 °C | –
6 | O=C(NN=Cc1ccc2c(ccc[n+]2Cc2ccccc2)c1)c1ccc2ccc(C(=O)NN=Cc3ccc4c(ccc[n+]4Cc4ccccc4)c3)nc2n1.[Br-].[Br-] [Compound 9c, N′^2,N′^7-Bis[(1-benzylquinolinium-6-yl)methylene]-1,8-naphthyridine-2,7-dicarbohydrazide bromide] | – | 1090 ± 100 nM | – | 12.3 ± 0.4 °C | 10.0 ± 1.7 °C | 13.1 ± 0.6 °C | –
7 | O=C(NN=Cc1cc[n+](Cc2ccccc2)c2ccccc12)c1ccc2ccc3ccc(C(=O)NN=Cc4cc[n+](Cc5ccccc5)c5ccccc45)nc3c2n1.[Br-].[Br-] [Compound 11c, N′^2,N′^9-Bis[(1-benzylquinolinium-4-yl)methylene]-1,10-phenanthroline-2,9-dicarbohydrazide bromide] | – | 340 ± 20 nM | particularly high affinity | 20.3 ± 0.4 °C | 17.0 ± 0.8 °C | 20.1 ± 0.3 °C | particularly high affinity
8 | CC[n+]1cccc2cc(C=NNC(=O)c3ccc4ccc5ccc(C(=O)NN=Cc6ccc7c(ccc[n+]7CC)c6)nc5c4n3)ccc21.[I-].[I-] [Compound 12b, N′^2,N′^9-Bis[(1-ethylquinolinium-6-yl)methylene]-1,10-phenanthroline-2,9-dicarbohydrazide iodide] | – | 590 ± 30 nM | – | 25.9 ± 0.4 °C | 25.1 ± 0.8 °C | 28.5 ± 1.1 °C | particularly high affinity
9 | O=C(NN=Cc1ccc2c(ccc[n+]2Cc2ccccc2)c1)c1ccc2ccc3ccc(C(=O)NN=Cc4ccc5c(ccc[n+]5Cc5ccccc5)c4)nc3c2n1.[Br-].[Br-] [Compound 12c, N′^2,N′^9-Bis[(1-benzylquinolinium-6-yl)methylene]-1,10-phenanthroline-2,9-dicarbohydrazide bromide] | – | 650 ± 60 nM | – | 25.0 ± 0.7 °C | 22.7 ± 1.5 °C | 25.3 ± 1.3 °C | particularly high affinity
